Source: US20260053811A1, “METHODS OF TREATING HYPERTENSION IN OBESE SUBJECTS” (Mineralys Therapeutics, Inc., priority 2022, published 2026)

Test system: hypertensive subjects
Test: Seated automated office blood pressure (AOBP) in randomized, placebo-controlled, dose-ranging study
Format: in vivo, human
Conditions: 100 mg QD, FAS; for Seated AOBP DBP change from baseline (CFB), Mean / Seated AOBP DBP, Mean / Seated AOBP SBP change from baseline (CFB), Mean / Seated AOBP SBP, Mean: Part 2
Protocol: A randomized, double-blinded, placebo-controlled, dose-ranging, multicenter study was conducted to evaluate the effect of orally administered Compound A HBr on blood pressure for the treatment of hypertension in male and female subjects ≥18 years of age.
The study consists of two parts. For enrollment into Part 1 of the study, a subject's value of plasma renin activity (PRA) must be ≤1 ng/mL/h based on morning measurement. If the value of PRA >1 ng/mL/h based on morning measurement, then subjects may be eligible to enter Part 2 of the study.
For Part 1, 163 enrolled subjects ≥18 years of age were randomized into 6 equal treatment groups (1:1:1:1:1:1) to 12.5 mg BID, 25 mg BID, 12.5 mg QD, 50 mg QD, 100 mg QD, or placebo. After a review of interim clinical data, the 2 lowest dose levels (12.5 mg QD and 12.5 mg BID) were stopped for future randomization due to a lack of consistent meaningful reduction of blood pressure, but the patients randomized to that point remained in the study through completion. Thus, after the review of interim clinical data, subjects were randomized into 4 equal treatment groups (1:1:1:1) to 25 mg BID, 50 mg QD, 100 mg QD, or placebo.
For Part 2, 36 enrolled subjects ≥18 years of age were randomized (5:1) to either 100 mg QD Compound A HBr or placebo such that the Compound A HBr treatment group consisted of approximately 30 subjects and the placebo treatment group will consist of approximately 6 subjects.
Subjects orally administered the assigned study drug (Compound A HBr or placebo) according to the assigned dosing regimen for 8 weeks beginning on Study Day 1. All subjects in Part 1 (regardless of dosing group) received BID dosing to preserve the integrity of the blind; active drug is administered as the morning dose for all QD dose groups. Subjects returned to the research facility or were seen by the clinical investigator or approved home health care professional at the end of Study Weeks 1, 2, 3, 4, 5, 6, 7, and 8 (±2 days) for protocol-defined efficacy and safety assessments and procedures, assessment of adverse events (AEs), and confirmation of compliance with study drug usage. Subjects also completed a telephone visit and blood pressure (BP) check at home approximately 3 days post last dose of study drug. Subjects attended up to 14 full clinic visits, including a pre-Screening visit, a Screening/start of Placebo Run-in visit, a second visit during Placebo Run-in, a clinic visit to initiate the ABPM procedure, a Randomization visit, 8 weekly visits during double-blind treatment, and an end-of-study visit scheduled 4 weeks after the last study treatment for final efficacy and safety assessments.
An automated oscillometric sphygmomanometer device was used to measure the subjects' systolic and diastolic blood pressure in office after approximately 5 minutes of rest in the seated position.
The primary endpoint is the change in office-measured (mean of last 2 of 5 unattended measurements using an automated oscillometric sphygmomanometer device after approximately 5 minutes of rest in the seated position) systolic blood pressure (SBP) from baseline to the end of Study Week 8.
Secondary endpoints of this study were: • (a) Change in 24-hour ambulatory blood pressure monitoring (ABPM) parameters (systolic and diastolic) from baseline to the end of Study Week 7. • (b) Change in office-measured SBP from baseline to the end of Study Weeks 1, 2, 3, 4, 5, 6, and 7. • (c) Change in office-measured diastolic blood pressure (DBP) from baseline to the end of Study Weeks 1, 2, 3, 4, 5, 6, 7, and 8. • (d) Proportion of subjects who achieve office-measured BP of ≤130/80 mm Hg by the end of Study Week 8.

**Q.** What does the source list for CC(=O)N[C@H]1CC[C@H](NC(=O)CN2CCN(c3nncc(-c4ccc(C)cc4)n3)CC2)CC1 [Compound A HBr]?
**A.** Seated AOBP DBP change from baseline (CFB), Mean (SD) (Week 4, Part 1): −6.36 (6.75) mmHg; Seated AOBP DBP, Mean (SD) (Week 4, Part 1): 71.60 (8.62) mmHg; Seated AOBP SBP change from baseline (CFB), Mean (SD) (Week 4, Part 1): −14.60 (11.66) mmHg; Seated AOBP SBP, Mean (SD) (Week 4, Part 1): 129.76 (12.66) mmHg; Seated AOBP DBP change from baseline (CFB), Mean (Week 4): −6.92 mmHg; Seated AOBP DBP, Mean (Week 4): 71.36 mmHg; Seated AOBP SBP change from baseline (CFB), Mean (Week 4): −16.04 mmHg; Seated AOBP SBP, Mean (Week 4): 125.44 mmHg; Seated AOBP DBP change from baseline (CFB), Mean (SD) (Week 5, Part 1): −5.36 (8.12) mmHg; Seated AOBP DBP, Mean (SD) (Week 5, Part 1): 72.60 (11.27) mmHg; Seated AOBP SBP change from baseline (CFB), Mean (SD) (Week 5, Part 1): −13.40 (16.59) mmHg; Seated AOBP SBP, Mean (SD) (Week 5, Part 1): 130.96 (14.84) mmHg; Seated AOBP DBP change from baseline (CFB), Mean (Week 5): −6.35 mmHg; Seated AOBP DBP, Mean (Week 5): 71.31 mmHg; Seated AOBP SBP change from baseline (CFB), Mean (Week 5): −12.87 mmHg; Seated AOBP SBP, Mean (Week 5): 127.92 mmHg; Seated AOBP DBP change from baseline (CFB), Mean (SD) (Week 6, Part 1): −3.33 (7.96) mmHg; Seated AOBP DBP, Mean (SD) (Week 6, Part 1): 74.77 (10.12) mmHg; Seated AOBP SBP change from baseline (CFB), Mean (SD) (Week 6, Part 1): −6.62 (15.69) mmHg; Seated AOBP SBP, Mean (SD) (Week 6, Part 1): 138.73 (14.13) mmHg; Seated AOBP DBP change from baseline (CFB), Mean (Week 6): −7.25 mmHg; Seated AOBP DBP, Mean (Week 6): 70.65 mmHg; Seated AOBP SBP change from baseline (CFB), Mean (Week 6): −13.29 mmHg; Seated AOBP SBP, Mean (Week 6): 127.58 mmHg; Seated AOBP DBP change from baseline (CFB), Mean (SD) (Week 7, Part 1): −4.12 (8.55) mmHg; Seated AOBP DBP, Mean (SD) (Week 7, Part 1): 73.48 (11.08) mmHg; Seated AOBP SBP change from baseline (CFB), Mean (SD) (Week 7, Part 1): −11.04 (16.75) mmHg; Seated AOBP SBP, Mean (SD) (Week 7, Part 1): 134.32 (18.32) mmHg; Seated AOBP DBP change from baseline (CFB), Mean (Week 7): −6.13 mmHg; Seated AOBP DBP, Mean (Week 7): 71.61 mmHg; Seated AOBP SBP change from baseline (CFB), Mean (Week 7): −11.66 mmHg; Seated AOBP SBP, Mean (Week 7): 128.75 mmHg; LSM Δ from Placebo, change from baseline in seated AOBP SBP (MMRM) (Week 8, Part 1): −7.81 mmHg; LSM Δ with Placebo, seated AOBP DBP (MMRM) (Week 8, Part 1): −4.11 mmHg; Modelled (MMRM) LSM (SEM) change from baseline, seated AOBP DBP (Week 8, Part 1): −5.75 (1.77) mmHg; Modelled (MMRM) LSM (SEM) change from baseline, seated AOBP SBP (Week 8, Part 1): −11.92 (2.77) mmHg; Seated AOBP DBP change from baseline (CFB), Mean (SD) (Week 8, Part 1): −5.46 (7.85) mmHg; Seated AOBP DBP, Mean (SD) (Week 8, Part 1): 73.00 (9.43) mmHg; Seated AOBP SBP change from baseline (CFB), Mean (SD) (Week 8, Part 1): −14.08 (13.26) mmHg; Seated AOBP SBP, Mean (SD) (Week 8, Part 1): 131.28 (14.13) mmHg; Subjects with seated AOBP SBP/DBP ≤130/80 mmHg: No (Week 8, Part 1): 21 (70.0) n (%); Subjects with seated AOBP SBP/DBP ≤130/80 mmHg: Yes (Week 8, Part 1): 9 (30.0) n (%); Seated AOBP DBP change from baseline (CFB), Mean (Week 8): −5.68 mmHg; Seated AOBP DBP, Mean (Week 8): 72.17 mmHg; Seated AOBP SBP change from baseline (CFB), Mean (Week 8): −11.20 mmHg; Seated AOBP SBP, Mean (Week 8): 129.30 mmHg
